From ChEMBL document CHEMBL1201862, “PubChem BioAssay data set” (2004)
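Interpolation was linear, between the two tested concentrations surrounding the appropriate level; five concentrations were tested over 48 hours in 96-well plates. Abbreviation: GI50, concentration required for 50% inhibition of growth.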 Active and inactive are the calls of the source. No stated cut-off is given here; in the data, active = GI50 up to about 1.1 µM and inactive = higher.

Experiments:
Experiment in all cases: NCI-60 cell line screen, 48 h
UACC-257 = tested on: UACC-257
DU-145 = tested on: DU-145
OVCAR-4 = tested on: OVCAR-4
PC-3 = tested on: PC-3
OVCAR-5 = tested on: OVCAR-5
HL-60 = tested on: HL-60
OVCAR-3 = tested on: OVCAR-3
NCI-H460 = tested on: NCI-H460
786-0 = tested on: 786-0
A549 = tested on: A549
UACC-62 = tested on: UACC-62
COLO 205 = tested on: COLO 205
MCF7 = tested on: MCF7
SK-OV-3 = tested on: SK-OV-3
MDA-MB-231 = tested on: MDA-MB-231
SR = tested on: SR
MDA-MB-435 = tested on: MDA-MB-435
OVCAR-8 = tested on: OVCAR-8

SMILES	GI50 (UACC-257)	GI50 (DU-145)	GI50 (OVCAR-4)	GI50 (PC-3)	GI50 (OVCAR-5)	GI50 (HL-60)	GI50 (OVCAR-3)	GI50 (NCI-H460)	GI50 (786-0)	GI50 (A549)	GI50 (UACC-62)	GI50 (COLO 205)	GI50 (MCF7)	GI50 (SK-OV-3)	GI50 (MDA-MB-231)	GI50 (SR)	GI50 (MDA-MB-435)	GI50 (OVCAR-8)
COC(=O)/C=C1/OC(c2ccc(C)cc2)=C(Cl)C1=O	20.3 µM (inactive)	17.7 µM (inactive)	13.3 µM (inactive)	13.8 µM (inactive)	19.1 µM (inactive)	3.31 µM (inactive)	12.4 µM (inactive)	22 µM (inactive)	13.9 µM (inactive)	20.1 µM (inactive)	17.1 µM (inactive)	11.2 µM (inactive)	16.1 µM (inactive)	24.2 µM (inactive)	16.9 µM (inactive)	0.489 µM (active)	17.8 µM (inactive)	16.9 µM (inactive)
CC1(C)C2CCC1(C)C(NC(=O)COCCOCC(N)=O)C2 (centres undefined)	> 100 µM (inactive)	> 100 µM (inactive)	> 100 µM (inactive)	> 100 µM (inactive)	> 100 µM (inactive)	56.2 µM (inactive)	> 100 µM (inactive)	> 100 µM (inactive)	> 100 µM (inactive)	> 100 µM (inactive)	> 100 µM (inactive)	94.8 µM (inactive)	> 100 µM (inactive)	> 100 µM (inactive)	> 100 µM (inactive)	31.1 µM (inactive)	> 100 µM (inactive)	> 100 µM (inactive)
CCOC(=O)c1sc2nc(SC)nc(Nc3ccc(OC)c(OC)c3)c2c1N	> 100 µM (inactive)	20.2 µM (inactive)	6.65 µM (inactive)	63.8 µM (inactive)	> 100 µM (inactive)	> 100 µM (inactive)	9.35 µM (inactive)	< 0.01 µM (active)	5.51 µM (inactive)	5.28 µM (inactive)	4.74 µM (inactive)	83.4 µM (inactive)	3.95 µM (inactive)	12.9 µM (inactive)	3.78 µM (inactive)	20.9 µM (inactive)	34.3 µM (inactive)	4.81 µM (inactive)
C=C1C[C@]23CC[C@@H]4C(CO)(CO)CC(=O)C[C@]4(C)[C@@H]2C(O)C[C@H]1C3 (some centres undefined)	> 100 µM (inactive)	> 100 µM (inactive)	> 100 µM (inactive)	> 100 µM (inactive)	> 100 µM (inactive)	> 100 µM (inactive)	> 100 µM (inactive)	> 100 µM (inactive)	> 100 µM (inactive)	> 100 µM (inactive)	> 100 µM (inactive)	> 100 µM (inactive)	> 100 µM (inactive)	> 100 µM (inactive)	> 100 µM (inactive)	> 100 µM (inactive)	> 100 µM (inactive)	> 100 µM (inactive)
CCOC(=O)C1(C(N)=O)C(=O)c2ccncc2C1=O (centres undefined)	> 100 µM (inactive)	> 100 µM (inactive)	> 100 µM (inactive)	> 100 µM (inactive)	> 100 µM (inactive)	> 100 µM (inactive)	> 100 µM (inactive)	> 100 µM (inactive)	> 100 µM (inactive)	> 100 µM (inactive)	> 100 µM (inactive)	> 100 µM (inactive)	> 100 µM (inactive)	> 100 µM (inactive)	> 100 µM (inactive)	> 100 µM (inactive)	> 100 µM (inactive)	> 100 µM (inactive)
CC(=O)O[C@H]1C(=O)[C@@]2(C)C(C(OC(=O)c3ccccc3)[C@]3(O)CC(OC(=O)C(O)C(NC(=O)c4ccccc4)c4cccc(Cl)c4)C(C)=C1C3(C)C)[C@]1(OC(C)=O)CO[C@@H]1C[C@@H]2O (some centres undefined)	9.46 µM (inactive)	3.57 µM (inactive)	> 10 µM (inactive)	7.11 µM (inactive)	4.15 µM (inactive)	1.38 µM (inactive)	4.18 µM (inactive)	5.28 µM (inactive)	> 10 µM (inactive)	7.64 µM (inactive)	2.33 µM (inactive)	3.1 µM (inactive)	3.06 µM (inactive)	> 10 µM (inactive)	> 10 µM (inactive)	1.47 µM (inactive)	1.55 µM (inactive)	5.92 µM (inactive)
O=C(Oc1cccc(Cl)c1)c1cc2cc(CCl)ccc2oc1=O	16.3 µM (inactive)	22.8 µM (inactive)	41.5 µM (inactive)	26.1 µM (inactive)	> 100 µM (inactive)	19 µM (inactive)	39.8 µM (inactive)	37.8 µM (inactive)	41.8 µM (inactive)	33 µM (inactive)	14.3 µM (inactive)	20.7 µM (inactive)	30.3 µM (inactive)	> 100 µM (inactive)	> 100 µM (inactive)	63.8 µM (inactive)	30.4 µM (inactive)	> 100 µM (inactive)
COC1=CC(=O)c2c(cc(COP(N)(=O)N(CCBr)CCBr)n2C)C1=O (centres undefined)	1.2 µM (inactive)	< 0.01 µM (active)	1.66 µM (inactive)	1.11 µM (active)	0.104 µM (active)	0.0113 µM (active)	0.0822 µM (active)	< 0.01 µM (active)	< 0.01 µM (active)	< 0.01 µM (active)	< 0.01 µM (active)	0.0242 µM (active)	< 0.01 µM (active)	0.0137 µM (active)	2.1 µM (inactive)	< 0.01 µM (active)	1.16 µM (inactive)	< 0.01 µM (active)
